Data: paper PMC7360964, “Auto‐inhibition of Mif2/CENP‐C ensures centromere‐dependent kinetochore assembly in budding yeast” (The EMBO Journal, 2020)

Experiments:
Mif2‐FRB strains = assay: Anchor-away growth assay, Mif2 alleles; format: cell-based, budding yeast; conditions: rapamycin
yeast growth = assay: Galactose-inducible overexpression growth assay (serial dilution); format: cell-based, budding yeast; conditions: two-micron pESC plasmid, 30°C
From the text: What is the consequence of expressing Mif2^Ame1‐N swap in cells? […] To assess this effect in a more systematic manner, we expressed Mif2‐wt, Mif2‐ΔN, or Mif2^Ame1‐N swap under the control of a galactose‐inducible promoter in an otherwise wild‐type background. […] To further analyze the toxic effect of Mif2^Ame1‐N swap in cells, we stably integrated the different Mif2 versions under the control of the GAL10 promoter at the URA3 locus and again analyzed growth on plates. We included an additional strain in which Mif2 swap was mutated so that it cannot bind Mtw1c (R10E mutation in the RxxG motif). […]
Figure 8 Auto‐inhibition of Mif2 is crucial for chromosome segregation and cell viability • Phenotypic analysis of Mif2 mutants using a galactose‐inducible overexpression system. […] Distribution of fluorescently labeled chromosome III was analyzed in large‐budded cells 16 h after switching the medium to galactose. […] Only large‐budded cells were included in the analysis. • Quantification of (D) in which large‐budded cells were classified according to their Mtw1‐GFP signal into the four indicated groups. A total of 100 cells were quantified for every strain. Mean values of the three indicated groups were calculated and plotted in a bar chart. […]

Mtw1‐GFP kinetochores = assay: Kinetochore microscopy (Mtw1-GFP, Spc42-mCherry) in Mif2-overexpressing cells; format: cell-based, budding yeast; conditions: large-budded cells, galactose, 100 cells per strain, 2 independent experiments
Procedure: Figure 8 Auto‐inhibition of Mif2 is crucial for chromosome segregation and cell viability • Phenotypic analysis of Mif2 mutants using a galactose‐inducible overexpression system. Strains harboring the indicated Mif2 expression constructs on pESC plasmids were plated in serial dilution on doHIS‐glucose or doHIS‐raffinose/galactose plates and incubated at 30°C. • Serial dilution assay of chromosomally integrated Mif2 variants under the control of the pGAL promoter. Strains were plated on YEP‐glucose and YEP‐raffinose/galactose plates and incubated at 25°C. • Analysis of chromosome segregation in strains from (B). Distribution of fluorescently labeled chromosome III was analyzed in large‐budded cells 16 h after switching the medium to galactose. Scale bar represents 2 μm. • Microscopic analysis of kinetochores in Mif2‐overexpressing cells visualizing Mtw1‐GFP and Spc42‐mCherry. Images of representative large‐budded cells after 16 h in galactose are shown. One kinetochore cluster is enlarged in the white box for each strain. Scale bar represents 5 μm. […] Only large‐budded cells were included in the analysis. • Quantification of (D) in which large‐budded cells were classified according to their Mtw1‐GFP signal into the four indicated groups. A total of 100 cells were quantified for every strain. Mean values of the three indicated groups were calculated and plotted in a bar chart. […]

budding yeast = conditions: ref Hornung et al, 2014; cited from earlier work
From the text: Figure 1 Ame1 and Mif2 are Mtw1c receptors that promote outer kinetochore assembly Left panel: Comparison of kinetochore assembly plans. Generally, inner kinetochores are represented by the […] centromere‐associated network (CCAN) of which Ame1 and Mif2 are the only essential subunits in S. cerevisiae. Right panel: Among other functions, Ame1 and Mif2 both act as receptors for the outer kinetochore component Mtw1c using short binding motifs at their N‐termini. An Ame1ΔN is lethal, while a Mif2ΔN mutant is viable. Two different scenarios for Mtw1c‐receptor configurations are indicated.

Mtw1‐Nnf1 complex (MN) = assay: Flag pulldown of MN by Mif2 variants; format: binding, budding yeast; conditions: bait 1 μM, MN 3 μM; Coomassie or Western blot against His-tag on Nnf1
From the text: (§1) If intramolecular interactions between the Mif2 N‐terminus and other parts of the molecule limit the ability to bind MN, then removing this auto‐inhibitory domain should increase the affinity for MN. […] We conclude that apart from residues in its N‐terminus, also residues in the signature motif and AT‐hook of Mif2 are responsible for the ability to adopt an auto‐inhibited conformation.
(§2) Figure 6 Mif2 auto‐inhibition depends on its Cse4 and DNA‐binding motifs • Schematic introduction of Mif2wt and Mif2‐ΔsigAT in which its Cse4 and DNA‐binding motifs have been removed. […]
(§3) The GST pulldown experiment was performed using BSA‐preblocked GSH Sepharose beads. […] Beads were washed twice in pulldown buffer, before Laemmli sample buffer was added to the beads (GST pulldown) or proteins were eluted in pulldown buffer supplemented with 1 mg/ml Flag peptide before addition of Laemmli sample buffer (Flag pulldown) and samples were analyzed on a Coomassie Brilliant Blue‐stained SDS–PAGE gel or Western blotting. […] Elution of proteins was monitored at 280 nm. 100 μl fractions were collected and analyzed by SDS–PAGE and Coomassie Brilliant Blue staining or Western blotting. […] After several washes with lysis buffer, proteins were eluted with 0.2 mg/ml 3xFlag peptide in lysis buffer, and fractions were analyzed by Western blotting. […]

MN = assay: Analytical SEC of Mif2 variants with MN; format: binding, budding yeast; conditions: 10 μM, 1 h at 4°C
From the text: as §1, §2, §3

Mif2‐ΔN: Mif2 lacking the N-terminus (Mif2-D1-35)
viability (Mif2‐FRB strains; ctf3 or chl4 deletion backgrounds): lethality | rescue of Mif2-FRB lethality (Mif2‐FRB strains; ctf19Δ background): not Mif2‐ΔN, was able to rescue the lethality | effect of overexpression on growth (yeast growth): tolerated well and did not greatly impact yeast viability | kinetochore signal localization (Mtw1‐GFP kinetochores): closely associated with spindle pole bodies | viability / phenotype (budding yeast): viable

B1: Mif2‐ΔsigAT: Mif2 variant that lacks signature motif and AT-hook (protein)
chain: MDYMKLGLKSRKTGIDVKQDIPKDEYSMENIDDFFKDDETSLISMRRKSRRKSSLFLPSTLNGDTKNVLPPFLQSYKSQDDEVVQSPSGKGDGSRRSSLLSHQSNFLSPANDFEPIEEEPEQEENDIRGNDFATPITQKLSKPTYKRKYSTRYSLDTSESPSVRLTPDRITNKNVYSDVPDLVADEDDDDRVNTSLNTSDNALLEDELEDDGFIPESEEDGDYIESDSSLDSGSDSASDSDGDNTYQEVEEEAEVNTNDNEDDYIRRQASDVVRTDSIIDRNGAKENLIPEDPNEDIIERIESGGIENGEWLKHGILEANVKISDTKEETKDEIIAFAPNLSQTEQVKDTKDENFALEIMFDKHKEYFASGILKLPAISGQKKLSNSFRTYITFHVIQGIVEVTVCKNKFLSVKGSTFQIPAFNEYAIANRGNDEAKMFFVQVTVSEDANDDNDKELDSTFDTFG
modifications: left off: Flag, C-terminal, kept
notes: Mif2 variant that lacks signature motif and AT-hook
co-purification of MN (Mtw1‐Nnf1 complex (MN)): able to co‐purify a significantly increased amount of MN | binding to MN by SEC (MN): increased binding to MN as compared to Mif2‐wt | effect of overexpression on growth (yeast growth): impairs growth
